Experimental data: PubChem BioAssay AID248 (DTP/NCI, 2004)
“And” between values parts separate entries of the source, which are not always exact repeats. Equal values may be shown once. Toxic doses and inconclusive results are not listed.

Test system: L1210 leukemia ip in BDF1 mice, survival T/C
Test: NCI In Vivo Anticancer Drug Screen. Data for tumor model L1210 Leukemia (intraperitoneal) in B6D2F1 (BDF1) mice
Details: endpoint: mean survival time, higher = longer survival
Outline: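 Value reflects the ratio of survival in compound-treated mice to survival in vehicle-treated controls, with both groups carrying the same transplanted tumor.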

[1] = dose: 100.0 mg/kg/injection, schedule: Q01DX001 (ip), vehicle: saline
[2] = dose: 100.0 mg/kg/injection, schedule: Q04DX003 (ip), vehicle: saline
[3] = dose: 200.0 mg/kg/injection, schedule: Q01DX001 (ip), vehicle: saline
[4] = dose: 200.0 mg/kg/injection, schedule: Q04DX003 (ip), vehicle: saline
[5] = dose: 400.0 mg/kg/injection, schedule: Q01DX001 (ip), vehicle: saline
[6] = dose: 50.0 mg/kg/injection, schedule: Q01DX001 (ip), vehicle: saline
[7] = dose: 100.0 mg/kg/injection, schedule: Q01DX009 (ip), vehicle: saline
[8] = dose: 200.0 mg/kg/injection, schedule: Q01DX009 (ip), vehicle: saline

With CNC(Cc1ccccc1)C1CCCCC1 (centres undefined) the T/C (dose: 6.0 mg/kg/injection, schedule: Q04DX003 (ip), vehicle: Klucel (hydroxypropylcellulose) (HPC)) was 93 % of control, the T/C (dose: 12.0 mg/kg/injection, schedule: Q01DX009 (ip), vehicle: Klucel (hydroxypropylcellulose) (HPC)) was 98 % of control and the T/C (dose: 12.0 mg/kg/injection, schedule: Q04DX003 (ip), vehicle: Klucel (hydroxypropylcellulose) (HPC)) was 98 % of control. For the same molecule, the T/C (dose: 25.0 mg/kg/injection, schedule: Q01DX009 (ip), vehicle: Klucel (hydroxypropylcellulose) (HPC)) was 98 % of control, the T/C (dose: 25.0 mg/kg/injection, schedule: Q04DX003 (ip), vehicle: Klucel (hydroxypropylcellulose) (HPC)) was 95 % of control and 109 % of control and the T/C (dose: 50.0 mg/kg/injection, schedule: Q01DX009 (ip), vehicle: Klucel (hydroxypropylcellulose) (HPC)) was 95 % of control.

With Cc1ccc(Nc2nc(N)nc(N)c2N=O)cc1 the T/C (dose: 25.0 mg/kg/injection, schedule: Q01DX Z (ip), vehicle: methylcellulose (MC)) was 101 % of control and the T/C (dose: 50.0 mg/kg/injection, schedule: Q01DX Z (ip), vehicle: methylcellulose (MC)) was 90 % of control.

With CC(C)CCCC(C)C1CCC2C3CCC4CN(N=O)CCC4C3CCC12C (centres undefined) the T/C (dose: 100.0 mg/kg/injection, schedule: Q01DX001 (sc), vehicle: steriod suspending solution) was 102 % of control, the T/C (dose: 177.6 mg/kg/injection, schedule: Q01DX001 (sc), vehicle: steriod suspending solution) was 95 % of control and the T/C (dose: 200.0 mg/kg/injection, schedule: Q01DX001 (sc), vehicle: steriod suspending solution) was 102 % of control. The T/C (dose: 266.8 mg/kg/injection, schedule: Q01DX001 (sc), vehicle: steriod suspending solution) was 98 % of control and the T/C (dose: 600.0 mg/kg/injection, schedule: Q01DX001 (sc), vehicle: steriod suspending solution) was 98 % of control.

With Cc1ccc(-c2ccns2)cc1 the T/C (dose: 50.0 mg/kg/injection, schedule: Q04DX003 (ip), vehicle: saline) was 105 % of control, the T/C [1] was 100 % of control and the T/C [2] was 108 % of control. For the same molecule, the T/C [3] was 104 % of control, the T/C [4] was 103 % of control and the T/C [5] was 104 % of control.

In the case of O=[N+]([O-])c1cccc(P(=O)(O)O)c1, the T/C [6] is reported as 115 % of control, the T/C [1] is reported as 107 % of control and the T/C [3] is reported as 97 % of control. For the same molecule, the T/C [5] was 103 % of control.

In the case of NCCCC(=O)NC(Cc1cnc[nH]1)C(=O)O (centres undefined), the T/C [1] is reported as 95 % of control, the T/C [3] is reported as 97 % of control and the T/C [5] is reported as 92 % of control.

In the case of CC(=O)Nc1ccc2c(c1)Cc1cc(Cl)ccc1-2, the T/C [6] is reported as 105 % of control, the T/C [1] is reported as 100 % of control and the T/C [3] is reported as 103 % of control. The T/C [5] was 105 % of control.

With O=C(O)CNc1cc(S(=O)(=O)O)cc2cc(S(=O)(=O)O)c(N=Nc3ccc(S(=O)(=O)O)c4ccccc34)c(O)c12 the T/C [1] was 98 % of control, the T/C [2] was 106 % of control and the T/C [3] was 95 % of control. For the same molecule, the T/C [4] was 90 % of control, the T/C [5] was 98 % of control and the T/C (dose: 400.0 mg/kg/injection, schedule: Q04DX003 (ip), vehicle: saline) was 95 % of control.

For Cn1c(=S)sc2cc(Cl)ccc21, the T/C (dose: 100.0 mg/kg/injection, schedule: Q04DX003 (ip), vehicle: saline with Tween-80) was 104 % of control, the T/C (dose: 200.0 mg/kg/injection, schedule: Q04DX003 (ip), vehicle: saline with Tween-80) was 101 % of control and the T/C (dose: 400.0 mg/kg/injection, schedule: Q04DX003 (ip), vehicle: saline with Tween-80) was 98 % of control.

Nc1nc(SN=Nc2ccc(S(N)(=O)=O)cc2)c2[nH]cnc2n1 was tested, and the T/C (dose: 0.16 mg/kg/injection, schedule: Q01DX Z (ip), vehicle: other) was 110 % of control, the T/C (dose: 1.5 mg/kg/injection, schedule: Q04DX003 (ip), vehicle: saline with Tween-80) was 111 % of control and the T/C (dose: 2.0 mg/kg/injection, schedule: Q01DX Z (ip), vehicle: methylcellulose (MC)) was 165 % of control. The T/C (dose: 3.0 mg/kg/injection, schedule: Q01DX Z (ip), vehicle: methylcellulose (MC)) was 154 % of control, the T/C (dose: 5.0 mg/kg/injection, schedule: Q01DX Z (ip), vehicle: other) was 153 % of control and the T/C (dose: 12.0 mg/kg/injection, schedule: Q04DX003 (ip), vehicle: saline with Tween-80) was 155 % of control. The T/C (dose: 17.0 mg/kg/injection, schedule: Q04DX003 (ip), vehicle: saline with Tween-80) was 158 % of control and 159 % of control, the T/C (dose: 20.0 mg/kg/injection, schedule: Q01DX Z (ip), vehicle: methylcellulose (MC)) was 124 % of control and the T/C (dose: 25.0 mg/kg/injection, schedule: Q04DX003 (ip), vehicle: saline with Tween-80) was 151 % of control and 190 % of control. The T/C (dose: 37.0 mg/kg/injection, schedule: Q04DX003 (ip), vehicle: saline with Tween-80) was 155 % of control and 164 % of control, the T/C (dose: 68.0 mg/kg/injection, schedule: Q01DX Z (ip), vehicle: other) was 109 % of control and the T/C (dose: 102.0 mg/kg/injection, schedule: Q01DX Z (ip), vehicle: other) was 102 % of control.

With C=C(C)C(=O)O[C@H]1CC2=C[C@@H](C[C@@]3(C)O[C@@H]3[C@H]3OC(=O)C(=C)[C@@H]31)OC2=O the T/C (dose: 2.5 mg/kg/injection, schedule: Q01DX009 (ip), vehicle: saline + alcohol) was 112 % of control, the T/C (dose: 5.0 mg/kg/injection, schedule: Q01DX009 (ip), vehicle: saline + alcohol) was 110 % of control and the T/C (dose: 5.0 mg/kg/injection, schedule: Q01DX Z (ip), vehicle: saline) was 106 % of control. For the same molecule, the T/C (dose: 10.0 mg/kg/injection, schedule: Q01DX009 (ip), vehicle: carboxymethylcellulose (CMC)) was 105 % of control, the T/C (dose: 10.0 mg/kg/injection, schedule: Q01DX009 (ip), vehicle: saline + alcohol) was 107 % of control and the T/C (dose: 10.0 mg/kg/injection, schedule: Q01DX Z (ip), vehicle: carboxymethylcellulose (CMC)) was 97 % of control. The T/C (dose: 10.0 mg/kg/injection, schedule: Q01DX Z (ip), vehicle: saline) was 101 % of control, the T/C (dose: 20.0 mg/kg/injection, schedule: Q01DX009 (ip), vehicle: carboxymethylcellulose (CMC)) was 93 % of control and the T/C (dose: 20.0 mg/kg/injection, schedule: Q01DX009 (ip), vehicle: saline + alcohol) was 105 % of control. The T/C (dose: 20.0 mg/kg/injection, schedule: Q01DX Z (ip), vehicle: carboxymethylcellulose (CMC)) was 100 % of control, the T/C (dose: 40.0 mg/kg/injection, schedule: Q01DX009 (ip), vehicle: carboxymethylcellulose (CMC)) was 100 % of control and the T/C (dose: 40.0 mg/kg/injection, schedule: Q01DX009 (ip), vehicle: saline + alcohol) was 90 % of control. For the same molecule, the T/C (dose: 40.0 mg/kg/injection, schedule: Q01DX Z (ip), vehicle: carboxymethylcellulose (CMC)) was 103 % of control.

CC(C)(Cc1ccccc1)NC(=O)NCCCl was tested, and the T/C [7] was 97 % of control, the T/C (dose: 100.0 mg/kg/injection, schedule: Q04DX002 (ip), vehicle: saline) was 93 % of control and the T/C [8] was 91 % of control. The T/C (dose: 200.0 mg/kg/injection, schedule: Q04DX002 (ip), vehicle: saline) was 96 % of control, the T/C (dose: 400.0 mg/kg/injection, schedule: Q01DX009 (ip), vehicle: saline) was 108 % of control and the T/C (dose: 400.0 mg/kg/injection, schedule: Q04DX002 (ip), vehicle: saline) was 96 % of control.

With CC1=CP(=O)(O)CC1 the T/C (dose: 50.0 mg/kg/injection, schedule: Q01DX009 (ip), vehicle: saline) was 113 % of control, the T/C [7] was 103 % of control and the T/C [2] was 95 % of control. The T/C [8] was 98 % of control and the T/C [4] was 93 % of control.

Nc1ccc2c(c1)Cc1cc(NC=O)ccc1-2 was tested, and the T/C (dose: 100.0 mg/kg/injection, schedule: Q01DX001 (ip), vehicle: carboxymethylcellulose (CMC)) was 101 % of control, the T/C (dose: 200.0 mg/kg/injection, schedule: Q01DX001 (ip), vehicle: carboxymethylcellulose (CMC)) was 97 % of control and the T/C (dose: 400.0 mg/kg/injection, schedule: Q01DX001 (ip), vehicle: carboxymethylcellulose (CMC)) was 92 % of control.

For CC1CN=C(c2ccc(NC(=O)NCCCCCCCCCNC(=O)Nc3ccc(C4=NCC(C)N4)cc3)cc2)N1 (centres undefined), the T/C (dose: 6.5 mg/kg/injection, schedule: Q01DX Z (ip), vehicle: carboxymethylcellulose (CMC)) was 86 % of control, the T/C (dose: 13.0 mg/kg/injection, schedule: Q01DX Z (ip), vehicle: carboxymethylcellulose (CMC)) was 100 % of control and the T/C (dose: 26.0 mg/kg/injection, schedule: Q01DX Z (ip), vehicle: carboxymethylcellulose (CMC)) was 106 % of control. The T/C (dose: 52.0 mg/kg/injection, schedule: Q01DX Z (ip), vehicle: carboxymethylcellulose (CMC)) was 107 % of control.

In the case of Oc1cc(-c2cc(O)c(O)c(O)c2)cc(O)c1O, the T/C (dose: 100.0 mg/kg/injection, schedule: Q01DX009 (ip), vehicle: saline with Tween-80) is reported as 104 % of control and the T/C (dose: 200.0 mg/kg/injection, schedule: Q01DX009 (ip), vehicle: saline with Tween-80) is reported as 108 % of control.
